This note sets out measurements from paper PMC8997995, “Amphiphilic Cell-Penetrating Peptides Containing Natural and Unnatural Amino Acids as Drug Delivery Agents” (Cells, 2022).

Non-standard residues stand in square brackets, D forms with d. Residues, ends and D or L forms follow the SMILES beside them. Dip = N[C@H](C(=O)O)C(c1ccccc1)c1ccccc1

One series has as its system CCRF-CEM cells. Briefly: In vitro cytotoxicity (MTS) in CCRF-CEM cells. The following applies: 25 µM, MTS, n = 3. The series is classed as cell-based, human. Here is the method: SK-OV-3, CCRF-CEM, HEK-293, MDA-MB-468, LLC-PK1, and MES-SA were used to determine the cytotoxicity of the synthesized linear and cyclic peptides. About 5000, 10,000, and 50,000 cells were seeded for SK-OV-3, HEK-293, and CCRF-CEM cells, respectively, in 0.1 mL of medium per well of 96-well plates. An appropriate medium was used for each cell line (SK-OV-3: McCoy’s 5A with L-glutamine containing fetal bovine serum (FBS) (10%) and penicillin or streptomycin (1%); CCRF-CEM: RPMI-1640 medium with L-glutamine and sodium bicarbonate containing FBS (10%) and penicillin or streptomycin (1%); MDA-MB-468 cells: DMEM/F12 (1:1) (1×) with L-glutamine and 15 mM HEPES containing FBS (10%) and penicillin or streptomycin (1%); LLC-PK1 cells: Dulbecco’s Modified Eagle’s Medium with 4500 mg/L glucose, L-glutamine and sodium bicarbonate, without sodium pyruvate liquid containing FBS (10%) and penicillin or streptomycin (1%); MES-SA cells: consisting of half SK-OV-3 and half CCRF-CEM media; and HEK-293 cells: Minimum Essential Medium Eagle with Earle’s salts and sodium bicarbonate, without L-glutamine containing FBS (10%) and penicillin or streptomycin (1%)). Then, 20 µL of peptides containing 5% DMSO in water were added to each well.
Adhesive cells were detached with 0.05% trypsin/EDTA after 15 min. The suspended cells were seeded in the medium 24 h prior to the experiment according to the previously reported procedure. The medium was changed before adding the peptides for adherent cells. Each concentration 5, 10, 25, 50, and 166 µM (containing 0.8% DMSO) had triplicate wells to minimize possible errors. […] The cell viability was measured by utilizing Multi-Mode Microplate Reader (SpectraMax M5 model, Molecular Devices, San Jose, CA, USA) after adding 20 µL of the MTS reagent to each well and incubating for 3 additional hours. […] The protocol manager was selected “endpoint” on the spectrophotometer’s software (SoftMax Pro 7). The 96-well plates were inserted inside spectrophotometer, and the data were acquired. The percentage of cell viability was calculated using the following equation:(1) =(Average OD values of samples treated with the compound /Average OD values of no treatment samples )∗100

Another series has as its system LLC-PK1 cells. Briefly: In vitro cytotoxicity (MTS) in LLC-PK1 cells. The series is classed as cell-based, pig. To be noted: LLC-PK1, 10 µM, 24 h and 72 h incubation. On the procedure: (§1) SK-OV-3, CCRF-CEM, HEK-293, MDA-MB-468, LLC-PK1, and MES-SA were used to determine the cytotoxicity of the synthesized linear and cyclic peptides. About 5000, 10,000, and 50,000 cells were seeded for SK-OV-3, HEK-293, and CCRF-CEM cells, respectively, in 0.1 mL of medium per well of 96-well plates. […]
(§2) Adhesive cells were detached with 0.05% trypsin/EDTA after 15 min. […] The cell viability was measured by utilizing Multi-Mode Microplate Reader (SpectraMax M5 model, Molecular Devices, San Jose, CA, USA) after adding 20 µL of the MTS reagent to each well and incubating for 3 additional hours. […] The percentage of cell viability was calculated using the following equation:(1) =(Average OD values of samples treated with the compound /Average OD values of no treatment samples )∗100

In another series the test system is MDA-MB-231 cells. Briefly: Confocal microscopy of cellular uptake. In kind it is cell-based, human. To be noted: MDA-MB-231, F’-GpYEEI 2 µM + peptide 10 μM, 3 h, 37 °C. Here is the method: Coverslips were placed in a 6-well plate wells and covered with 2 mL of media. Human epithelial mammary gland/breast adenocarcinoma cells (MDA-MB-231, ATCC No. HTB-26) were used. 200,000 cells per well were seeded with DMEM media low glucose (4 mM L-glutamine, 1000 mg/L glucose, and 110 mg/L sodium pyruvate) overnight on a cover glass in 6-well plates. The cells were treated with the physical mixture of F’-GpYEEI and [DipR]5 (10 μM) or F’-[K(DipR)5] in DMEM media low glucose without FBS and incubated for 3 h at 37 °C in a humidified atmosphere of 5% CO2. Next, the media was removed, and cells were washed three times with 2 mL PBS in each well. Cells were fixed in 2 mL of 3.7% formaldehyde for 10 min and were washed 3 times in PBS (pH 7.6). 1 mL of the Texas red solution was pipetted (40 µL of Texas Red and 100 mg BSA in 10 mL of PBS) in each well to stay for 1 h at room temperature. The cells were washed at least 3 times with 2 mL of PBS for 5 min. The nucleic staining with 13 µL of DAPI on each slide was completed. Cells were covered with a coverslip carefully without air bubbles. The slide dried horizontally overnight in a dark place that had airflow. The cells were photographed and video recorded by using Nikon Instruments A1 Confocal Laser Microscope Series. […]

The test system of another series is MES-SA cells. Kind of series: In vitro cytotoxicity (MTS) in MES-SA cells. In kind it is cell-based, human. The following applies: 10 µM, 24 h incubation, n = 3. Here is the method:
as §1, §2

Take `N=C(N)NCCC[C@@H]1NC(=O)[C@H](C(c2ccccc2)c2ccccc2)NC(=O)[C@H](CCCNC(=N)N)NC(=O)[C@H](C(c2ccccc2)c2ccccc2)NC(=O)[C@H](CCCNC(=N)N)NC(=O)[C@H](C(c2ccccc2)c2ccccc2)NC(=O)[C@H](CCCNC(=N)N)NC(=O)[C@H](C(c2ccccc2)c2ccccc2)NC(=O)[C@H](CCCNC(=N)N)NC(=O)[C@H](C(c2ccccc2)c2ccccc2)NC1=O` [[DipR]5] (cyclo([Dip]R[Dip]R[Dip]R[Dip]R[Dip]R)): the “reduction of cell proliferation” value in the series on CCRF-CEM cells (24 h incubation) is recorded as 64%; in the series on CCRF-CEM cells (72 h incubation), 84%; with MES-SA cells, 38%. Also, in the series with LLC-PK1 cells, the cytotoxicity entry is recorded as “no significant cytotoxicity”. The “localization of F’-GpYEEI delivered by the peptide” value with MDA-MB-231 cells is “mostly localized in the cytosol”.
